Experimental data reported in PMC8245773, “Brevibacillin 2V, a Novel Antimicrobial Lipopeptide With an Exceptionally Low Hemolytic Activity” (Frontiers in Microbiology, 2021).

How the values were obtained:
Test in all cases: Synergy assay, checkerboard method
K. pneumoniae LMG20218 = conditions: for FICI: synergistic ≤0.5; for MIC of antibiotic at brevibacillin 0 mg/L / MIC of antibiotic at brevibacillin 2V 0 mg/L / MIC of antibiotic at brevibacillin I 0 mg/L / MIC of antibiotic at brevibacillin V 0 mg/L: checkerboard, 5 × 10^5 cfu/ml, 37°C, 20 h, antibiotic alone
Protocol: (§1) Briefly, antibiotics were diluted in twofold series, while brevibacillins were added at a certain final concentration of 1, 2, or 4 mg/L. Indicator strains were added at a final concentration of 5 × 10^5 cfu/ml. After incubation at 37°C for 20 h, the OD600 of plates was determined. The fractional inhibitory concentration index (FICI) was calculated using the following formula: FICI = (MIC compound A in combination with B / MIC compound A) + (MIC compound B in combination with A / MIC compound B).

E. coli ATCC 25922 = conditions: for FICI: synergistic ≤0.5; for MIC of antibiotic at brevibacillin 0 mg/L / MIC of antibiotic at brevibacillin 2V 0 mg/L / MIC of antibiotic at brevibacillin I 0 mg/L / MIC of antibiotic at brevibacillin V 0 mg/L: checkerboard, 5 × 10^5 cfu/ml, 37°C, 20 h, antibiotic alone
Protocol: as §1

P. aeruginosa LMG6395 = conditions: for FICI: synergistic ≤0.5; for MIC of antibiotic at brevibacillin 0 mg/L / MIC of antibiotic at brevibacillin 2V 0 mg/L / MIC of antibiotic at brevibacillin I 0 mg/L / MIC of antibiotic at brevibacillin V 0 mg/L: checkerboard, 5 × 10^5 cfu/ml, 37°C, 20 h, antibiotic alone
Protocol: as §1

A. baumannii ATCC17978 = conditions: for FICI / MIC of antibiotic at brevibacillin 0 mg/L / MIC of antibiotic at brevibacillin 2V 0 mg/L / MIC of antibiotic at brevibacillin I 0 mg/L / MIC of antibiotic at brevibacillin V 0 mg/L: A. baumannii ATCC17978; for FICI: synergistic ≤0.5; for MIC of antibiotic at brevibacillin 0 mg/L / MIC of antibiotic at brevibacillin 2V 0 mg/L / MIC of antibiotic at brevibacillin I 0 mg/L / MIC of antibiotic at brevibacillin V 0 mg/L: checkerboard, 5 × 10^5 cfu/ml, 37°C, 20 h, antibiotic alone
Protocol: as §1

[1] = antibiotic + brevibacillin 2V, E. coli ATCC 25922
[2] = antibiotic + brevibacillin I, E.coli ATCC 25922
[3] = antibiotic + brevibacillin V, E.coli ATCC 25922
[4] = antibiotic + brevibacillin, E.coli ATCC 25922

## NCC[C@H](O)C(=O)N[C@@H]1C[C@H](N)[C@@H](O[C@H]2O[C@H](CN)[C@@H](O)[C@H](O)[C@H]2O)[C@H](O)[C@H]1O[C@H]1O[C@H](CO)[C@@H](O)[C@H](N)[C@H]1O [Amikacin]
K. pneumoniae LMG20218; antibiotic + brevibacillin 2V
  FICI: 0.563
K. pneumoniae LMG20218; antibiotic + brevibacillin I
  FICI: 0.563
K. pneumoniae LMG20218; antibiotic + brevibacillin V
  FICI: 1.016
K. pneumoniae LMG20218; antibiotic + brevibacillin
  FICI: 1.031
K. pneumoniae LMG20218
  MIC of antibiotic at brevibacillin 0 mg/L: 0.5 µg/mL
  MIC of antibiotic at brevibacillin 2V 0 mg/L: 0.5 µg/mL
  MIC of antibiotic at brevibacillin I 0 mg/L: 0.5 µg/mL
  MIC of antibiotic at brevibacillin V 0 mg/L: 0.5 µg/mL
E. coli ATCC 25922; [1]
  FICI: 0.188
E. coli ATCC 25922; [2]
  FICI: 0.281
E. coli ATCC 25922; [3]
  FICI: 0.250
E. coli ATCC 25922; [4]
  FICI: 0.156
E. coli ATCC 25922; E.coli ATCC 25922
  MIC of antibiotic at brevibacillin 0 mg/L: 4 µg/mL
  MIC of antibiotic at brevibacillin 2V 0 mg/L: 4 µg/mL
  MIC of antibiotic at brevibacillin I 0 mg/L: 4 µg/mL
  MIC of antibiotic at brevibacillin V 0 mg/L: 4 µg/mL
P. aeruginosa LMG6395; antibiotic + brevibacillin 2V
  FICI: 0.266
P. aeruginosa LMG6395; antibiotic + brevibacillin I
  FICI: 0.266
P. aeruginosa LMG6395; antibiotic + brevibacillin V
  FICI: 0.266
P. aeruginosa LMG6395; antibiotic + brevibacillin
  FICI: 0.266
P. aeruginosa LMG6395
  MIC of antibiotic at brevibacillin 0 mg/L: 2 µg/mL
  MIC of antibiotic at brevibacillin 2V 0 mg/L: 2 µg/mL
  MIC of antibiotic at brevibacillin I 0 mg/L: 2 µg/mL
  MIC of antibiotic at brevibacillin V 0 mg/L: 2 µg/mL
A. baumannii ATCC17978; antibiotic + brevibacillin 2V
  FICI: 0.141
A. baumannii ATCC17978; antibiotic + brevibacillin I
  FICI: 0.078
A. baumannii ATCC17978; antibiotic + brevibacillin V
  FICI: 0.094
A. baumannii ATCC17978; antibiotic + brevibacillin
  FICI: 0.094
A. baumannii ATCC17978
  MIC of antibiotic at brevibacillin 0 mg/L: 16 µg/mL
  MIC of antibiotic at brevibacillin 2V 0 mg/L: 16 µg/mL
  MIC of antibiotic at brevibacillin I 0 mg/L: 16 µg/mL
  MIC of antibiotic at brevibacillin V 0 mg/L: 16 µg/mL
A. baumannii ATCC17978; in the presence of 4 mg/L brevibacillins
  decrease of MIC of amikacin against A. baumannii: 32–64 folds

## CC[C@H]1OC(=O)[C@H](C)[C@@H](O[C@H]2C[C@@](C)(OC)[C@@H](O)[C@H](C)O2)[C@H](C)[C@@H](O[C@@H]2O[C@H](C)C[C@H](N(C)C)[C@H]2O)[C@](C)(O)C[C@@H](C)CN(C)[C@H](C)[C@@H](O)[C@]1(C)O [Azithromycin]
K. pneumoniae LMG20218; antibiotic + brevibacillin 2V
  FICI: 1.031
K. pneumoniae LMG20218; antibiotic + brevibacillin I
  FICI: 1.016
K. pneumoniae LMG20218; antibiotic + brevibacillin V
  FICI: 1.016
K. pneumoniae LMG20218; antibiotic + brevibacillin
  FICI: 1.031
K. pneumoniae LMG20218
  MIC of antibiotic at brevibacillin 0 mg/L: 16 µg/mL
  MIC of antibiotic at brevibacillin 2V 0 mg/L: 16 µg/mL
  MIC of antibiotic at brevibacillin I 0 mg/L: 16 µg/mL
  MIC of antibiotic at brevibacillin V 0 mg/L: 16 µg/mL
E. coli ATCC 25922; [1]
  FICI: 0.281
E. coli ATCC 25922; [2]
  FICI: 0.375
E. coli ATCC 25922; [3]
  FICI: 0.563
E. coli ATCC 25922; [4]
  FICI: 0.188
E. coli ATCC 25922; E.coli ATCC 25922
  MIC of antibiotic at brevibacillin 0 mg/L: 2 µg/mL
  MIC of antibiotic at brevibacillin 2V 0 mg/L: 2 µg/mL
  MIC of antibiotic at brevibacillin I 0 mg/L: 2 µg/mL
  MIC of antibiotic at brevibacillin V 0 mg/L: 2 µg/mL
P. aeruginosa LMG6395; antibiotic + brevibacillin 2V
  FICI: 0.266
P. aeruginosa LMG6395; antibiotic + brevibacillin I
  FICI: 0.266
P. aeruginosa LMG6395; antibiotic + brevibacillin V
  FICI: 0.516
P. aeruginosa LMG6395; antibiotic + brevibacillin
  FICI: 0.516
P. aeruginosa LMG6395
  MIC of antibiotic at brevibacillin 0 mg/L: 128 µg/mL
  MIC of antibiotic at brevibacillin 2V 0 mg/L: 128 µg/mL
  MIC of antibiotic at brevibacillin I 0 mg/L: 128 µg/mL
  MIC of antibiotic at brevibacillin V 0 mg/L: 128 µg/mL
A. baumannii ATCC17978; antibiotic + brevibacillin 2V
  FICI: 0.531
A. baumannii ATCC17978; antibiotic + brevibacillin I
  FICI: 0.516
A. baumannii ATCC17978; antibiotic + brevibacillin V
  FICI: 1.016
A. baumannii ATCC17978; antibiotic + brevibacillin
  FICI: 0.531
A. baumannii ATCC17978
  MIC of antibiotic at brevibacillin 0 mg/L: 16 µg/mL
  MIC of antibiotic at brevibacillin 2V 0 mg/L: 16 µg/mL
  MIC of antibiotic at brevibacillin I 0 mg/L: 16 µg/mL
  MIC of antibiotic at brevibacillin V 0 mg/L: 16 µg/mL

## CCn1cc(C(=O)O)c(=O)c2ccc(C)nc21 [Nalidixic acid]
K. pneumoniae LMG20218; antibiotic + brevibacillin 2V
  FICI: 0.531
K. pneumoniae LMG20218; antibiotic + brevibacillin I
  FICI: 0.516
K. pneumoniae LMG20218; antibiotic + brevibacillin V
  FICI: 1.016
K. pneumoniae LMG20218; antibiotic + brevibacillin
  FICI: 0.563
K. pneumoniae LMG20218
  MIC of antibiotic at brevibacillin 0 mg/L: 32 µg/mL
  MIC of antibiotic at brevibacillin 2V 0 mg/L: 32 µg/mL
  MIC of antibiotic at brevibacillin I 0 mg/L: 32 µg/mL
  MIC of antibiotic at brevibacillin V 0 mg/L: 32 µg/mL
E. coli ATCC 25922; [1]
  FICI: 0.313
E. coli ATCC 25922; [2]
  FICI: 0.313
E. coli ATCC 25922; [3]
  FICI: 0.375
E. coli ATCC 25922; [4]
  FICI: 0.375
E. coli ATCC 25922; E.coli ATCC 25922
  MIC of antibiotic at brevibacillin 0 mg/L: 2 µg/mL
  MIC of antibiotic at brevibacillin 2V 0 mg/L: 2 µg/mL
  MIC of antibiotic at brevibacillin I 0 mg/L: 2 µg/mL
  MIC of antibiotic at brevibacillin V 0 mg/L: 2 µg/mL
P. aeruginosa LMG6395; antibiotic + brevibacillin 2V
  FICI: 0.266
P. aeruginosa LMG6395; antibiotic + brevibacillin I
  FICI: 0.266
P. aeruginosa LMG6395; antibiotic + brevibacillin V
  FICI: 0.516
P. aeruginosa LMG6395; antibiotic + brevibacillin
  FICI: 0.516
P. aeruginosa LMG6395
  MIC of antibiotic at brevibacillin 0 mg/L: 256 µg/mL
  MIC of antibiotic at brevibacillin 2V 0 mg/L: 256 µg/mL
  MIC of antibiotic at brevibacillin I 0 mg/L: 256 µg/mL
  MIC of antibiotic at brevibacillin V 0 mg/L: 256 µg/mL
A. baumannii ATCC17978; antibiotic + brevibacillin 2V
  FICI: 0.531
A. baumannii ATCC17978; antibiotic + brevibacillin I
  FICI: 0.516
A. baumannii ATCC17978; antibiotic + brevibacillin V
  FICI: 1.016
A. baumannii ATCC17978; antibiotic + brevibacillin
  FICI: 0.625
A. baumannii ATCC17978
  MIC of antibiotic at brevibacillin 0 mg/L: 32 µg/mL
  MIC of antibiotic at brevibacillin 2V 0 mg/L: 32 µg/mL
  MIC of antibiotic at brevibacillin I 0 mg/L: 32 µg/mL
  MIC of antibiotic at brevibacillin V 0 mg/L: 32 µg/mL

## CO[C@H]1/C=C/O[C@@]2(C)Oc3c(C)c(O)c4c(O)c(c(/C=N/N5CCN(C)CC5)c(O)c4c3C2=O)NC(=O)/C(C)=C\C=C\[C@H](C)[C@H](O)[C@@H](C)[C@@H](O)[C@@H](C)[C@H](OC(C)=O)[C@@H]1C [Rifampicin]
K. pneumoniae LMG20218
  MIC of antibiotic at brevibacillin 0 mg/L: 64 µg/mL
  MIC of antibiotic at brevibacillin 2V 0 mg/L: 64 µg/mL
  MIC of antibiotic at brevibacillin I 0 mg/L: 64 µg/mL
  MIC of antibiotic at brevibacillin V 0 mg/L: 64 µg/mL
E. coli ATCC 25922; [1]
  FICI: 0.313
E. coli ATCC 25922; [2]
  FICI: 0.531
E. coli ATCC 25922; [3]
  FICI: 0.375
E. coli ATCC 25922; [4]
  FICI: 0.250
E. coli ATCC 25922; E.coli ATCC 25922
  MIC of antibiotic at brevibacillin 0 mg/L: 4 µg/mL
  MIC of antibiotic at brevibacillin 2V 0 mg/L: 4 µg/mL
  MIC of antibiotic at brevibacillin I 0 mg/L: 4 µg/mL
  MIC of antibiotic at brevibacillin V 0 mg/L: 4 µg/mL
P. aeruginosa LMG6395; antibiotic + brevibacillin 2V
  FICI: 0.516
P. aeruginosa LMG6395; antibiotic + brevibacillin I
  FICI: 0.516
P. aeruginosa LMG6395; antibiotic + brevibacillin V
  FICI: 0.516
P. aeruginosa LMG6395; antibiotic + brevibacillin
  FICI: 0.281
P. aeruginosa LMG6395
  MIC of antibiotic at brevibacillin 0 mg/L: 32 µg/mL
  MIC of antibiotic at brevibacillin 2V 0 mg/L: 32 µg/mL
  MIC of antibiotic at brevibacillin I 0 mg/L: 32 µg/mL
  MIC of antibiotic at brevibacillin V 0 mg/L: 32 µg/mL
A. baumannii ATCC17978; antibiotic + brevibacillin 2V
  FICI: 0.375
A. baumannii ATCC17978; antibiotic + brevibacillin I
  FICI: 0.516
A. baumannii ATCC17978; antibiotic + brevibacillin V
  FICI: 0.516
A. baumannii ATCC17978; antibiotic + brevibacillin
  FICI: 0.281
A. baumannii ATCC17978
  MIC of antibiotic at brevibacillin 0 mg/L: 32 µg/mL
  MIC of antibiotic at brevibacillin 2V 0 mg/L: 32 µg/mL
  MIC of antibiotic at brevibacillin I 0 mg/L: 32 µg/mL
  MIC of antibiotic at brevibacillin V 0 mg/L: 32 µg/mL
